Patent US9303018B2, “Inhibitors of leukotriene production” (Boehringer Ingelheim International GmbH, priority 2013, dated 2016)
pIC50: −log10 of the molar value.

Experiments:
human LTA4 hydrolase = human LTA4 hydrolase (Homo sapiens (Human), UniProt P09960); assay: LTA4H Enzyme assay (peptidase, Arg-AMC cleavage); assay type: biochemical; details: LTA4H enzyme 1 nM, Arg-AMC substrate 50 μM, room temperature 1 h, fluorescence
Description: The compounds of the invention are assessed for the ability to interact with human LTA4 hydrolase in an enzymatic assay that measures the ability of the enzyme to cleave the peptide bond of arginyl-aminomethylcoumarin (Arg-AMC). LTA4H Enzyme (1 nM final), Arg-AMC substrate (50 μM final), and compound are combined in a reaction buffer (50 mM Tris-HCl (pH 7.5), 100 mM KCl, 0.5% bovine serum albumin) at room temperature for 1 h. The formation of product is assessed by measuring the fluorescence of aminomethylcoumarin product (excitation wavelength 380 nm/emission wavelength 460 nm).

[1] = test system: synthesis of LTB4 in human whole blood; assay: LTB4 production inhibition assay in human whole blood (HWB); assay type: cell-based; details: heparinized human whole blood, calcimycin 20 μM stimulated, plasma LTB4 by HTRF
Description: The compounds of the invention are additionally tested in a human whole blood (HWB) assay to determine their ability to inhibit the synthesis of LTB4 in a cellular system. Compounds are combined with heparinized human whole blood and incubated for 15 minutes at 37° C. Calcimycin (20 μM final, prepared in phosphate-buffered saline, pH 7.4) is then added and the mixture is incubated for another 30 minutes at 37° C. The samples are centrifuged for 5 min at low speed (1500×g) and the plasma layer is removed. Plasma LTB4 concentrations are then measured using an antibody-based homogenous time-resolved fluorescence method (CisBio, Bedford, Mass.).

Chain of human LTA4 hydrolase (P09960 whole entry): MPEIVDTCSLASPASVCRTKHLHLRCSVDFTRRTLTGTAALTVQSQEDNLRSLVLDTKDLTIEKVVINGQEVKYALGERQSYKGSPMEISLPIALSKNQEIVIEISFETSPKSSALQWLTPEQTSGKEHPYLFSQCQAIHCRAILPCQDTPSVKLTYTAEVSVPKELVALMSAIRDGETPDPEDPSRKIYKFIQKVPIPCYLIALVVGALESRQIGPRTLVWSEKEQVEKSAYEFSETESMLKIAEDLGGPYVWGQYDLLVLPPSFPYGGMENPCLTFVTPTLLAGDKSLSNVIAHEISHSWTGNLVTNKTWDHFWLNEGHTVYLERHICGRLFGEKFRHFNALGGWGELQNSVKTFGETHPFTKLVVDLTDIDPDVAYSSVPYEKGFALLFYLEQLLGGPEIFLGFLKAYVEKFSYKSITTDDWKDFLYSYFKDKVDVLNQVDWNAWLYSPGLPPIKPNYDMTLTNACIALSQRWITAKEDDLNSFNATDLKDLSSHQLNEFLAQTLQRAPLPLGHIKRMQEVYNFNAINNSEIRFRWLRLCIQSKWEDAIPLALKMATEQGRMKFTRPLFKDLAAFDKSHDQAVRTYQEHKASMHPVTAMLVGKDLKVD

Row | SMILES | pIC50 (human LTA4 hydrolase) | pIC50 [1]
1 | O=C(CO)N1CCN(Cc2cnc3cc(Oc4ccc(-c5ccn[nH]5)cn4)ccc3c2)CC1 [Example 1, 2-Hydroxy-1-(4-{7-[5-(2H-pyrazol-3-yl)-pyridin-2-yloxy]-quinolin-3-ylmethyl}-piperazin-1-yl)-ethanone] | 9.16 | 6.80
2 | CC(=O)N1CCN(Cc2cnc3cc(Oc4ccc(-c5ccn[nH]5)cn4)ccc3c2)CC1 [Example 2, 1-(4-{7-[5-(2H-Pyrazol-3-yl)-pyridin-2-yloxy]-quinolin-3-ylmethyl}-piperazin-1-yl)-ethanone] | 9.22 | 6.82
3 | OC1CN(Cc2cnc3cc(Oc4ccc(-c5ccn[nH]5)cn4)ccc3c2)C1 [Example 3, 1-{7-[5-(2H-Pyrazol-3-yl)-pyridin-2-yloxy]-quinolin-3-ylmethyl}-azetidin-3-ol] | 8.40 | 6.37
4 | COCC(=O)N1CCN(Cc2cnc3cc(Oc4ccc(-c5ccn[nH]5)cn4)ccc3c2)CC1 [Example 4, 2-Methoxy-1-(4-{7-[5-(2H-pyrazol-3-yl)-pyridin-2-yloxy]-quinolin-3-ylmethyl}-piperazin-1-yl)-ethanone] | 8.85 | 6.77
5 | O=C1[C@@H](O)CCN1C1CCN(Cc2cnc3cc(Oc4ccc(-c5ccn[nH]5)cn4)ccc3c2)CC1 [Example 5, (S)-3-Hydroxy-1-(1-{7-[5-(2H-pyrazol-3-yl)-pyridin-2-yloxy]-quinolin-3-ylmethyl}-piperidin-4-yl)-pyrrolidin-2-one] | 8.59 | 6.43
6 | O=C1OCCN1C1CCN(Cc2cnc3cc(Oc4ccc(-c5ccn[nH]5)cn4)ccc3c2)CC1 [Example 6, 3-(1-{7-[5-(2H-Pyrazol-3-yl)-pyridin-2-yloxy]-quinolin-3-ylmethyl}-piperidin-4-yl)-oxazolidin-2-one] | 8.72 | 6.57
7 | OC1CCN(Cc2cnc3cc(Oc4ccc(-c5ccn[nH]5)cn4)ccc3c2)CC1 [Example 7, l-{7-[5-(2H-Pyrazol-3-yl)-pyridin-2-yloxy]-quinolin-3-ylmethyl}-piperidin-4-ol] | 8.43 | 6.30
8 | CC1(O)CN(Cc2cnc3cc(Oc4ccc(-c5ccn[nH]5)cn4)ccc3c2)C1 [Example 8, 3-Methyl-1-{7-[5-(2H-pyrazol-3-yl)-pyridin-2-yloxy]-quinolin-3-ylmethyl}-azetidin-3-ol] | 8.62 | 6.39
9 | CN(Cc1cnc2cc(Oc3ccc(-c4ccn[nH]4)cn3)ccc2c1)[C@@H]1CCN(C(=O)CO)C1 [Example 9, 2-Hydroxy-1-[(R)-3-(methyl-{7-[5-(2H-pyrazol-3-yl)-pyridin-2-yloxy]-quinolin-3-ylmethyl}-amino)-pyrrolidin-1-yl]-ethanone] | 9.06 | 6.82
10 | CN(Cc1cnc2cc(Oc3ccc(-c4ccn[nH]4)cn3)ccc2c1)[C@H]1CCN(C(=O)CO)C1 [Example 10, 2-Hydroxy-1-[(S)-3-(methyl-{7-[5-(2H-pyrazol-3-yl)-pyridin-2-yloxy]-quinolin-3-ylmethyl}-amino)-pyrrolidin-1-yl]-ethanone] | 8.89 | 6.85
11 | CN(C(=O)CO)[C@H]1CCN(Cc2cnc3cc(Oc4ccc(-c5ccn[nH]5)cn4)ccc3c2)C1 [Example 11, 2-Hydroxy-N-methyl-N-((S)-1-{7-[5-(2H-pyrazol-3-yl)-pyridin-2-yloxy]-quinolin-3-ylmethyl}-pyrrolidin-3-yl)-acetamide] | 8.59 | 6.60
12 | CN(C(=O)CO)[C@@H]1CCN(Cc2cnc3cc(Oc4ccc(-c5ccn[nH]5)cn4)ccc3c2)C1 [Example 12, 2-Hydroxy-N-methyl-N-((R)-1-{7-[5-(2H-pyrazol-3-yl)-pyridin-2-yloxy]-quinolin-3-ylmethyl}-pyrrolidin-3-yl)-acetamide] | 8.74 | 6.74
13 | O[C@H]1CCN(Cc2cnc3cc(Oc4ccc(-c5ccn[nH]5)cn4)ccc3c2)C1 [Example 13, (S)-1-{7-[5-(2H-Pyrazol-3-yl)-pyridin-2-yloxy]-quinolin-3-ylmethyl)-pyrrolidin-3-ol] | 8.60 | 6.66
14 | CCC(=O)N1CCN(Cc2cnc3cc(Oc4ccc(-c5ccn[nH]5)cn4)ccc3c2)CC1 [Example 14, 1-(4-{7-[5-(2H-Pyrazol-3-yl)-pyridin-2-yloxy]-quinolin-3-ylmethyl}-piperazin-1-yl)-propan-1-one] | 9.36 | 7.07
15 | CN(C(=O)CO)C1CCN(Cc2cnc3cc(Oc4ccc(-c5ccn[nH]5)cn4)ccc3c2)CC1 [Example 15, 2-Hydroxy-N-methyl-N-(1-{7-[5-(2H-pyrazol-3-yl)-pyridin-2-yloxy]-quinolin-3-ylmethyl}-piperidin-4-yl)-acetamide] | 8.46 | 6.42
16 | CC(=O)N1CC(CN(C)Cc2cnc3cc(Oc4ccc(-c5ccn[nH]5)cn4)ccc3c2)C1 [Example 16, 1-{3-[(Methyl-{7-[5-(2H-pyrazol-3-yl)-pyridin-2-yloxy]-quinolin-3-ylmethyl}-amino)-methyl]-azetidin-1-yl}-ethanone] | 8.96 | 6.96
17 | O[C@@H]1CCN(Cc2cnc3cc(Oc4ccc(-c5ccn[nH]5)cn4)ccc3c2)C1 [Example 17, (R)-1-{7-[5-(2H-Pyrazol-3-yl)-pyridin-2-yloxy]-quinolin-3-ylmethyl}-pyrrolidin-3-ol] | 8.77 | 6.64
18 | C[C@H](O)C(=O)N1CCN(Cc2cnc3cc(Oc4ccc(-c5ccn[nH]5)cn4)ccc3c2)CC1 [Example 18] | 8.96 | 6.74
19 | CN(C)C(=O)C1CCN(Cc2cnc3cc(Oc4ccc(-c5ccn[nH]5)cn4)ccc3c2)CC1 [Example 19, 1-{7-[5-(2H-Pyrazol-3-yl)-pyridin-2-yloxy]-quinolin-3-ylmethyl}-piperidine-4-carboxylic acid dimethylamide] | 8.82 | 6.32
20 | CC(C)(O)C(=O)N1CCN(Cc2cnc3cc(Oc4ccc(-c5ccn[nH]5)cn4)ccc3c2)CC1 [Example 20, 2-Hydroxy-2-methyl-1-(4-{7-[5-(2H-pyrazol-3-yl)-pyridin-2-yloxy]-quinolin-3-ylmethyl)-piperazin-1-yl)-propan-1-one] | 8.80 | 6.64
21 | CC(C)(C)C(=O)N1CCN(Cc2cnc3cc(Oc4ccc(-c5ccn[nH]5)cn4)ccc3c2)CC1 [Example 21, 2,2-Dimethyl-1-(4-{7-[5-(2H-pyrazol-3-yl)-pyridin-2-yloxy]-quinolin-3-ylmethyl}-piperazin-1-yl)-propan-1-one] | 8.77 | 6.13
22 | O=C(C1CC1)N1CCN(Cc2cnc3cc(Oc4ccc(-c5ccn[nH]5)cn4)ccc3c2)CC1 [Example 22, Cyclopropyl-(4-{7-[5-(2H-pyrazol-3-yl)-pyridin-2-yloxy]-quinolin-3-ylmethyl}-piperazin-1-yl)-methanone] | 9.03 | 6.64
23 | CC(C)C(=O)N1CCN(Cc2cnc3cc(Oc4ccc(-c5ccn[nH]5)cn4)ccc3c2)CC1 [Example 23] | 9.27 | 6.80
